Drawing on US20230141403A1 (Hoffmann-La Roche Inc., priority 2020, published 2023), this text covers IC90 for 6 compounds.

This assay relates to Acinetobacter baumannii ATCC17961. The assay can be described thus: Antimicrobial susceptibility testing: 90% growth inhibitory concentration (IC90) determination. In kind it is cell-based. The settings on record: Acinetobacter baumannii, ATCC17961, 16 h, 90% growth inhibitory concentration; Iso-Sensitest broth, optical density at 600 nm over 16h, 35±2° C.; read-out: AB ATCC 17961 IC90. How it is done:
Antimicrobial Susceptibility Testing:
90% Growth Inhibitory Concentration (IC90) Determination
The in vitro antimicrobial activity of the compounds was determined according to the following procedure:
The assay used a 10-points Iso-Sensitest broth medium to measure quantitatively the in vitro activity of the compounds against Acinetobacter baumannii ATCC17961 or ATCC17978.
Stock compounds in DMSO were serially twofold diluted (e.g. range from 50 to 0.097 μM final concentration) in 384 wells microtiter plates and inoculated with 49 μl the bacterial suspension in Iso-Sensitest medium to have a final cell concentration of ˜5×10^(5) CFU/ml in a final volume/well of 50 ul/well. Microtiter plates were incubated at 35±2° C.
Bacterial cell growth was determined with the measurement of optical density at λ=600 nm each 20 minutes over a time course of 16h. Growth inhibition was calculated during the logarithmic growth of the bacterial cells with determination of the concentration inhibiting 50% (IC50) and 90% (IC90) of the growth.
Table 2 provides the 90% growth inhibitory concentrations (IC90) in micromoles per liter of the compounds of present invention obtained against the strain Acinetobacter baumannii ATCC17961.

Where a name gives a salt, the structure may show the parent alone.

Turning to `COc1ccc(-c2cnc3c(Nc4ccc(N5CCC(CN)CC5)c(Cl)c4)nccn23)c(F)c1F` [Example 115, N-(4-(4-(aminomethyl)piperidin-1-yl)-3-chlorophenyl)-3-(2,3-difluoro-4-methoxyphenyl) imidazo [1,2-a]pyrazin-8-amine hydrochloride], the IC90 was 490 nM.
For `COc1ccc(-c2cnc3c(Nc4ccc(S(=O)(=O)C[C@H]5CC[C@H](N)CC5)c(Cl)c4)nccn23)c(F)c1F` [Example 116, rac-N-(4-((((lr,4r)-4-aminocyclohexyl)methyl)sulfonyl)-3-chlorophenyl)-3-(2,3-difluoro-4-methoxyphenyl)imidazol[1,2-a]pyrazin-8-amine] the value was 220 nM.
As for `COc1ccc(-c2cnc3c(Nc4ccc(Cn5ccnc5)c(C)c4)nccn23)c(F)c1F` [Example 118, 3-(2,3-difluoro-4-methoxy-phenyl)-N-[4-(imidazol-1-ylmethyl)-3-methyl-phenyl]imidazo[1,2-a]pyrazin-8-amine], the figure is 120 nM; as for `Cc1cc(Nc2nccn3c(-c4ccc(Oc5ccccn5)c(F)c4F)cnc23)ccc1OCCOCCOCCN` [Example 122, N-(4-(2-(2-(2-aminoethoxy)ethoxy)ethoxy)-3-methylphenyl)-3-(2,3-difluoro-4-(pyridin-2-yloxy)phenyl)imidazo[1,2-a]pyrazin-8-amine], 650 nM.
On to `CCc1cc(Nc2nccn3c(-c4ccc(OC)c(F)c4F)cnc23)ccc1C[N+](C)(C)C` [Example 123, [4-[[3-(2,3-difluoro-4-methoxy-phenyl)imidazo[1,2-a]pyrazin-8-yl]amino]-2-ethyl-phenyl]methyl-trimethyl-ammonium], for which the IC90 came to 580 nM.
As to `COc1ccc(-c2cnc3c(Nc4ccc5c(c4)CCC5=O)nccn23)c(F)c1F` [Example 125, 5-[[3-(2,3-difluoro-4-methoxy-phenyl)imidazo[1,2-a]pyrazin-8-yl]amino]indan-1-one], the IC90 amounted to 360 nM.

The term IC90 denotes the point of the concentration-response curve where the effect stands at 90%.
